Assays:
[1] = In vitro radiochemical stability; assay type: physicochemical; conditions: 40°C, after 30 min of incubation
Procedure: In vitro radiochemical stabilities of [^18F]1 and [^18F]2 were investigated in 0.9% NaCl solution, Dulbecco’s phosphate buffer, 0.01 M Tris–HCl (pH 7.4 at 21°C), and EtOH at 40°C for 90 min. Samples were taken at 15, 30, 60, and 90 min after incubation and analyzed by radio-TLC and radio-HPLC.

[2] = Ex vivo biodistribution (organ distribution) in mice; conditions: i.v. 300 to 400 kBq, female CD1 mice
Procedure: (§1) Female CD1 mice (10 to 12 weeks old, 20 to 25 g) received an injection of 300 to 400 kBq of [^18F]1 or [^18F]2 with specific activities of >450 GBq/μmol in 200 μL of 0.9% NaCl/10% EtOH into the tail vein. The animals were anesthetized (CO2/O2 mixture) for blood and urine sampling and euthanized by luxation of the cervical spine at 5, 30, and 60 min after injection (p.i.) (n = 2 to 5 per time). The organs of interest were removed and weighed, and the activities were measured by γ counting using a calibrated γ counter Wallac Wizard 1470 (Perkin Elmer Inc., Waltham, MA, USA). The percentage of injected dose per gram of wet tissue (% ID/g wet weight) was calculated.

CB2R = CB2R (Mus musculus, UniProt P47936); design: species or system female CD1 mice; conditions: female, CD1, mouse, in vivo
Procedure: as §1
(3 mg/kg i.p. in 0.9% saline, 10 min before the injection of the radiotracer) at 60 min p.i. (n = 2 to 5). The unpaired two-tailed t test was used to compare the results between the groups. We considered differences to be significant at a p value <0.05.

[3] = Ex vivo metabolite studies (radio-HPLC of plasma and brain extracts); assay type: in vivo, CD1 mice; conditions: mice
Procedure: [^18F]1 and [^18F]2 (100 to 150 MBq, 250 to 450 GBq/μmol in 150 μL NaCl 0.9%/10% EtOH) were injected via the tail vein in CD1 male mice (10 to 12 weeks old, 20 to 25 g). Blood and urine samples were obtained at 30 and 60 min p.i. (n = 3 per time point). Twofold extractions of plasma and brain samples (n = 3) were performed using ice-cold MeCN according to the standard protocol established in our group (see [47, 48]). Briefly, plasma samples were obtained by centrifugation of the blood at 4,000×g at 4°C for 10 min, and brain samples were homogenized in ice-cold 50 mM Tris–HCl (pH = 7.4). The samples were vortexed, incubated on ice, and centrifuged at 10,000×g for 3 min. Supernatants were collected, and the precipitates were re-dissolved in ice-cold MeCN for the second extraction. The supernatants from the two extractions were combined, concentrated under a gentle argon stream at 65°C, and analyzed by radio-TLC and gradient analytical HPLC (see ‘Radiochemistry’ section). Aliquots from each extraction supernatant and the precipitates were also taken and quantified by γ counting (Wallac Wizard 1470, Perkin Elmer Inc., Waltham, MA, USA) along with the respective aliquots of intact plasma samples and brain homogenates. A moderate recovery of radioactivity was obtained from plasma samples and brain homogenates (60% to 70%). Radiometabolites of [^18F]17 in the plasma, spleen, and brain were assessed at 30 and 60 min p.i.

Chain of CB2R (P47936 whole entry): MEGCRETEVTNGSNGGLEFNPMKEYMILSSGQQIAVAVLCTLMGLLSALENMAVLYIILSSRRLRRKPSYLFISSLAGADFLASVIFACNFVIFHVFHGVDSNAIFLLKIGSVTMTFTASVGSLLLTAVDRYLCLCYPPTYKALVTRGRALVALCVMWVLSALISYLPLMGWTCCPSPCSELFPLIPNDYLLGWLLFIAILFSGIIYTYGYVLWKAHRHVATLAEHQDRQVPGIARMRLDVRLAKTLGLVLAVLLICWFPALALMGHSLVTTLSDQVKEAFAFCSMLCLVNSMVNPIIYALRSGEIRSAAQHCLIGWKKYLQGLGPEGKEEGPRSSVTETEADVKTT

O=C(CCc1nc(-c2ccc(F)cc2Br)no1)Nc1ccc2c(c1)c1ccccc1n2CC[18F] [[^18F]1]
intact tracer ([1]; 0.9% NaCl): 95%
intact tracer ([1]; Dulbecco’s phosphate buffer): 94%
intact tracer ([1]; EtOH): 93%
intact tracer ([1]; Tris–HCl): 89%
Radioactivity uptake, Adrenals, Control 5 min [2]: 4.16 ± 6.23 % ID/g
Radioactivity uptake, Adrenals, Control 30 min [2]: 3.31 ± 0.99 % ID/g
Radioactivity uptake, Adrenals, Control 60 min [2]: 3.16 ± 1.25 % ID/g
Radioactivity uptake, Bladder, Control 5 min [2]: 2.23 ± 1.39 % ID/g
Radioactivity uptake, Bladder, Control 30 min [2]: 1.65 ± 0.43 % ID/g
Radioactivity uptake, Bladder, Control 60 min [2]: 3.27 ± 1.94 % ID/g
Radioactivity uptake, Blood, Control 5 min [2]: 1.94 ± 0.44 % ID/g
Radioactivity uptake, Blood, Control 30 min [2]: 1.44 ± 0.41 % ID/g
Radioactivity uptake, Blood, Control 60 min [2]: 1.94 ± 0.69 % ID/g
Radioactivity uptake, Brain, Control 5 min [2]: 1.31 ± 0.24 % ID/g
Radioactivity uptake, Brain, Control 30 min [2]: 0.76 ± 0.22 % ID/g
Radioactivity uptake, Brain, Control 60 min [2]: 0.92 ± 0.27 % ID/g
Radioactivity uptake, Femur, Control 5 min [2]: 2.00 ± 0.38 % ID/g
Radioactivity uptake, Femur, Control 30 min [2]: 1.37 ± 0.50 % ID/g
Radioactivity uptake, Femur, Control 60 min [2]: 1.84 ± 0.35 % ID/g
Radioactivity uptake, Gonads, Control 5 min [2]: 1.06 ± 0.94 % ID/g
Radioactivity uptake, Gonads, Control 30 min [2]: 1.02 ± 0.26 % ID/g
Radioactivity uptake, Gonads, Control 60 min [2]: 1.33 ± 0.50 % ID/g
Radioactivity uptake, Heart, Control 5 min [2]: 3.39 ± 0.45 % ID/g
Radioactivity uptake, Heart, Control 30 min [2]: 1.43 ± 0.47 % ID/g
Radioactivity uptake, Heart, Control 60 min [2]: 1.66 ± 0.37 % ID/g
Radioactivity uptake, Kidney, Control 5 min [2]: 13.40 ± 5.66 % ID/g
Radioactivity uptake, Kidney, Control 30 min [2]: 2.68 ± 0.37 % ID/g
Radioactivity uptake, Kidney, Control 60 min [2]: 1.65 ± 0.49 % ID/g
Radioactivity uptake, Large intestine, Control 5 min [2]: 1.91 ± 2.66 % ID/g
Radioactivity uptake, Large intestine, Control 30 min [2]: 3.24 ± 5.61 % ID/g
Radioactivity uptake, Large intestine, Control 60 min [2]: 1.54 ± 0.42 % ID/g
Radioactivity uptake, Liver, Control 5 min [2]: 11.00 ± 1.04 % ID/g
Radioactivity uptake, Liver, Control 30 min [2]: 4.38 ± 1.19 % ID/g
Radioactivity uptake, Liver, Control 60 min [2]: 5.29 ± 1.22 % ID/g
Radioactivity uptake, Lung, Control 5 min [2]: 3.68 ± 0.62 % ID/g
Radioactivity uptake, Lung, Control 30 min [2]: 1.65 ± 0.70 % ID/g
Radioactivity uptake, Lung, Control 60 min [2]: 1.77 ± 0.74 % ID/g
Radioactivity uptake, Muscle, Control 5 min [2]: 2.10 ± 0.33 % ID/g
Radioactivity uptake, Muscle, Control 30 min [2]: 1.02 ± 0.50 % ID/g
Radioactivity uptake, Muscle, Control 60 min [2]: 0.89 ± 0.19 % ID/g
Radioactivity uptake, Pancreas, Control 5 min [2]: 4.97 ± 0.62 % ID/g
Radioactivity uptake, Pancreas, Control 30 min [2]: 1.50 ± 0.74 % ID/g
Radioactivity uptake, Pancreas, Control 60 min [2]: 1.13 ± 0.11 % ID/g
Radioactivity uptake, Plasma, Control 5 min [2]: 2.52 ± 0.58 % ID/g
Radioactivity uptake, Plasma, Control 30 min [2]: 1.88 ± 0.58 % ID/g
Radioactivity uptake, Plasma, Control 60 min [2]: 2.50 ± 0.87 % ID/g
Radioactivity uptake, Small intestine, Control 5 min [2]: 4.36 ± 2.09 % ID/g
Radioactivity uptake, Small intestine, Control 30 min [2]: 10.51 ± 8.38 % ID/g
Radioactivity uptake, Small intestine, Control 60 min [2]: 22.03 ± 8.32 % ID/g
Radioactivity uptake, Spleen, Control 5 min [2]: 3.44 ± 0.77 % ID/g
Radioactivity uptake, Spleen, Control 30 min [2]: 1.46 ± 0.56 % ID/g
Radioactivity uptake, Spleen, Control 60 min [2]: 1.52 ± 0.62 % ID/g
Radioactivity uptake, Stomach, Control 5 min [2]: 2.05 ± 0.33 % ID/g
Radioactivity uptake, Stomach, Control 30 min [2]: 1.23 ± 0.36 % ID/g
Radioactivity uptake, Stomach, Control 60 min [2]: 2.70 ± 1.47 % ID/g
Radioactivity uptake, Thymus, Control 5 min [2]: 3.30 ± 0.58 % ID/g
Radioactivity uptake, Thymus, Control 30 min [2]: 1.57 ± 0.80 % ID/g
Radioactivity uptake, Thymus, Control 60 min [2]: 1.90 ± 0.98 % ID/g
Radioactivity uptake, Adrenals, Blocking 60 min (CB2R; 3 mg/kg, 1 h): 3.00 ± 0.64 % ID/g
Radioactivity uptake, Bladder, Blocking 60 min (CB2R; 3 mg/kg, 1 h): 5.07 ± 3.84 % ID/g
Radioactivity uptake, Blood, Blocking 60 min (CB2R; 3 mg/kg, 1 h): 1.43 ± 0.34 % ID/g
Radioactivity uptake, Brain, Blocking 60 min (CB2R; 3 mg/kg, 1 h): 0.66 ± 0.11 % ID/g
Radioactivity uptake, Femur, Blocking 60 min (CB2R; 3 mg/kg, 1 h): 1.49 ± 0.45 % ID/g
Radioactivity uptake, Gonads, Blocking 60 min (CB2R; 3 mg/kg, 1 h): 1.19 ± 0.30 % ID/g
Radioactivity uptake, Heart, Blocking 60 min (CB2R; 3 mg/kg, 1 h): 1.49 ± 0.29 % ID/g
Radioactivity uptake, Kidney, Blocking 60 min (CB2R; 3 mg/kg, 1 h): 1.74 ± 0.48 % ID/g
Radioactivity uptake, Large intestine, Blocking 60 min (CB2R; 3 mg/kg, 1 h): 1.63 ± 0.64 % ID/g
Radioactivity uptake, Liver, Blocking 60 min (CB2R; 3 mg/kg, 1 h): 4.22 ± 0.96 % ID/g
Radioactivity uptake, Lung, Blocking 60 min (CB2R; 3 mg/kg, 1 h): 1.47 ± 0.29 % ID/g
Radioactivity uptake, Muscle, Blocking 60 min (CB2R; 3 mg/kg, 1 h): 0.93 ± 0.23 % ID/g
Radioactivity uptake, Pancreas, Blocking 60 min (CB2R; 3 mg/kg, 1 h): 1.03 ± 0.26 % ID/g
Radioactivity uptake, Plasma, Blocking 60 min (CB2R; 3 mg/kg, 1 h): 1.87 ± 0.41 % ID/g
Radioactivity uptake, Small intestine, Blocking 60 min (CB2R; 3 mg/kg, 1 h): 19.39 ± 5.53 % ID/g
Radioactivity uptake, Spleen, Blocking 60 min (CB2R; 3 mg/kg, 1 h): 0.98 ± 0.21 % ID/g
Radioactivity uptake, Stomach, Blocking 60 min (CB2R; 3 mg/kg, 1 h): 1.84 ± 1.28 % ID/g
Radioactivity uptake, Thymus, Blocking 60 min (CB2R; 3 mg/kg, 1 h): 1.50 ± 0.35 % ID/g
% control, Adrenals (CB2R; 60 min): 95 % control
% control, Bladder (CB2R; 60 min): 155 % control
% control, Blood (CB2R; 60 min): 74 % control
% control, Brain (CB2R; 60 min): 72 % control
% control, Femur (CB2R; 60 min): 81 % control
% control, Gonads (CB2R; 60 min): 89 % control
% control, Heart (CB2R; 60 min): 90 % control
% control, Kidney (CB2R; 60 min): 106 % control
% control, L. intestine (CB2R; 60 min): 106 % control
% control, Liver (CB2R; 60 min): 80 % control
% control, Lung (CB2R; 60 min): 83 % control
% control, Muscle (CB2R; 60 min): 104 % control
% control, Pancreas (CB2R; 60 min): 91 % control
% control, Plasma (CB2R; 60 min): 75 % control
% control, S. intestine (CB2R; 60 min): 88 % control
% control, Spleen (CB2R; 60 min): 65 % control
% control, Stomach (CB2R; 60 min): 68 % control
% control, Thymus (CB2R; 60 min): 79 % control
Percentage of total activity in brain samples, 30 min p.i. ([3]; brain homogenate extract, 30 min p.i. of [18F]1 or [18F]2, radio-HPLC): 68%
Percentage of total activity in brain samples, 60 min p.i. ([3]; brain homogenate extract, 60 min p.i. of [18F]1 or [18F]2, radio-HPLC): 35%
Relative percentage of intact tracer and radiometabolites, Plasma 30 min p.i. ([3]; plasma, 30 min p.i. of [18F]1 or [18F]2, radio-HPLC): 60%
Relative percentage of intact tracer and radiometabolites, Plasma 60 min p.i. ([3]; plasma, 60 min p.i. of [18F]1 or [18F]2, radio-HPLC): 7%

From PMC3856494, “Radiofluorination and biological evaluation of N-aryl-oxadiazolyl-propionamides as potential radioligands for PET imaging of cannabinoid CB2 receptors” (Organic and Medicinal Chemistry Letters, 2013)
